Measurements published in article PMC10221320.
Positions of bridges follow the written chain, without caps; N, C: chain ends. No end group written: not given here.

Key:
CD-1 mice [1] = experiment: Open field test; assay type: in vivo, mouse; conditions: for N (c.z.), number of visits to central zone / N (def), number of bowel movements / N (peeps), number of peeps into minks / N (racks), vertical activity / N (s.p.), number of visits to side platform / S (act), distance traveled during activity / S, distance traveled / T (act), activity time / T (b.z.), staying on the border zone / T (c.z.), time spent on the central zone / T (e.c.z.), time of exit from the central zone / T (pass), passivity time / V(act), average movement speed during activity / V, average travel speed: mean ± SD
Protocol: (§1) The animal studies were performed under the European Commission’s legislation (Directives 86/609/EEC, 2010/63/EU), the National Standard of the Russian Federation “Good Laboratory Practice” (GOST P 53434-2009, Moscow, Russia), and Committee on Ethics of Laboratory Animal Handling № 05/21, 20 September 2021 and 08/21, 30 December 2021 protocols (PIBOC FEB RAS). Adult female CD-1 mice weighing 25 ± 2 g were subjected to a 12 h light–dark cycle at room temperature and with ad libitum access to food and water. There were seven or eight individuals in each group.
The animal activity and anxiety-related and exploratory behaviors were estimated at the open field facility (OpenScience, Krasnogorsk, Russia). Three groups of animals were treated with peptides at doses of 0.01, 0.1 and 1 mg/kg (intravenously) 30 min before testing. The control group was injected with an identical volume (50 µL) of saline. The animals were placed in the center of the lightened arena, and the recording lasted 3 min. Using the software “Minotaur” (LLC “Neurobiotics”, Zelenograd, Russia), 14 parameters were estimated: time (T) of activity (act); passivity (pass); spent on the central zone (c.z.), staying on the border zone (b.z.); exit from the central zone (e.c.z.); average travel speed (V, m/s); average movement speed during activity (V(act)); distance traveled (S, m); distance traveled during activity (S (act)); number (N) of visits to central zone (c.z.); visits to side platform (s.p.); vertical activity (racks); peeps into minks (peeps); and bowel movements (def).

CD-1 mice [2] = experiment: Nociceptive reaction to direct hind paw pad injection; assay type: in vivo, mouse; conditions: 1 mg/kg in the hind paw pad; 15 min
Protocol: as §1
For a direct Hmg 1b-4 injection (to eliminate the nociceptive reaction of potentiator of ASIC3 channels), it was dissolved in saline and administered at a dose of 1 mg/kg in the hind paw pad. The control group was injected with an identical volume (20 µL) of saline. The animals were placed individually, and a nociceptive reaction was registered for 15 min.

rat ASIC3 (rASIC3) = experiment: Two-electrode voltage clamp, rASIC3 in Xenopus laevis oocytes; assay type: cell-based; conditions: 1 μM; pH drop from 7.4 to 5.5; −50 mV; n = 5; recombinant peptide
[3] = intraperitoneal administration; ref [40]; cited from earlier work
CD-1 mice [4] = experiment: Carrageenan-induced paw edema; assay type: in vivo, mouse
Protocol: as §1
Three groups of animals were treated with peptides at doses of 0.01, 0.1 and 1 mg/kg (intravenously) 30 min before the induction of inflammation. The control animal group received an identical volume of saline. The positive control group received diclofenac (Hemofarm A.D., Vršac, Serbia) at a dose of 1 mg/kg. The edema was induced by a 20 µL injection of 1.5% solution of λ-carrageenan (Sigma Aldrich, St. Louis, MO, USA) in the hind paw pad. The resulting edema was measured after 1, 2, 4 and 24 h using a plethysmometer (Ugo Basile, Gemonio (VA), Italy). The anti-inflammatory threshold was estimated as a decrease in the paw volume and volume growth index (%), calculated using the formula: Volume Growth Index (%) = [(VC − Vi)/Vi] × 100, (1), where VC is the volume of the paw after the introduction of carrageenan and Vi is the volume of the paw before the introduction of carrageenan.

CD-1 mice [5] = experiment: Complete Freund's adjuvant-induced acute inflammation; assay type: in vivo, mouse
Protocol: as §1
Three groups of animals were treated with peptides at doses of 0.01, 0.1 and 1 mg/kg (intravenously) 30 min before the induction of inflammation. The control animal group received an identical volume of saline. The positive control group received diclofenac (Hemofarm A.D., Vršac, Serbia) at a dose of 1 mg/kg. The edema was induced by a 20 µL injection of complete Freund’s adjuvant (CFA) (MP Biomedicals, Irvine, CA, USA) in the hind paw pad. The resulting edema was measured at 1, 2, 4, 24 and 48 h using a plethysmometer (Ugo Basile, Gemonio (VA), Italy). The anti-inflammatory threshold was estimated as a decrease in the paw volume and volume growth index (%), calculated using the formula: Volume Growth Index (%) = [(VCFA − Vi)/Vi] × 100, (1), where VCFA is the volume of the paw after the introduction of CFA and Vi is the volume of the paw before the introduction of CFA.

[6] = 0.01 mg/kg i.v. 30 min before testing, n = 7–8
[7] = 0.1 mg/kg i.v. 30 min before testing, n = 7–8
[8] = 1 mg/kg i.v. 30 min before testing, n = 7–8

Sequence: GTPCDCYGYTGVYWFMLSRCPSGYGYNLSCHYFMGICCVKR (disulfide 4-37, 6-30, 20-38 (inferred)) [Hmg 1b-4]
- N (c.z.), number of visits to central zone (CD-1 mice [1]; [6]): 12 ± 0.8
- N (def), number of bowel movements (CD-1 mice [1]; [6]): 1.2 ± 0.2
- N (peeps), number of peeps into minks (CD-1 mice [1]; [6]): 8.0 ± 0.5
- N (racks), vertical activity (CD-1 mice [1]; [6]): 27.2 ± 1.9
- N (s.p.), number of visits to side platform (CD-1 mice [1]; [6]): 13.3 ± 1.1
- S (act), distance traveled during activity (CD-1 mice [1]; [6]): 25.0 ± 2.4 m
- S, distance traveled (CD-1 mice [1]; [6]): 25.0 ± 1.8 m
- T (act), activity time (CD-1 mice [1]; [6]): 113.5 ± 9.5 s
- T (b.z.), staying on the border zone (CD-1 mice [1]; [6]): 145.4 ± 5.2 s
- T (c.z.), time spent on the central zone (CD-1 mice [1]; [6]): 34.2 ± 2.8 s
- T (e.c.z.), time of exit from the central zone (CD-1 mice [1]; [6]): 6.5 ± 3.1 s
- T (pass), passivity time (CD-1 mice [1]; [6]): 64.2 ± 7.4 s
- V(act), average movement speed during activity (CD-1 mice [1]; [6]): 0.22 ± 0.02 m/s
- V, average travel speed (CD-1 mice [1]; [6]): 0.14 ± 0.02 m/s
- N (c.z.), number of visits to central zone (CD-1 mice [1]; [7]): 21.2 ± 6.1
- N (def), number of bowel movements (CD-1 mice [1]; [7]): 0
- N (peeps), number of peeps into minks (CD-1 mice [1]; [7]): 7.8 ± 2.1
- N (racks), vertical activity (CD-1 mice [1]; [7]): 37.0 ± 7.8
- N (s.p.), number of visits to side platform (CD-1 mice [1]; [7]): 20.1 ± 6.4
- S (act), distance traveled during activity (CD-1 mice [1]; [7]): 24.2 ± 5.1 m
- S, distance traveled (CD-1 mice [1]; [7]): 24.2 ± 5.1 m
- T (b.z.), staying on the border zone (CD-1 mice [1]; [7]): 127.5 ± 10.0 s
- T (c.z.), time spent on the central zone (CD-1 mice [1]; [7]): 53.8 ± 10.3 s
- T (e.c.z.), time of exit from the central zone (CD-1 mice [1]; [7]): 6.1 ± 3.3 s
- T (pass), passivity time (CD-1 mice [1]; [7]): 55.1 ± 11.1 s
- V(act), average movement speed during activity (CD-1 mice [1]; [7]): 0.22 ± 0.03 m/s
- V, average travel speed (CD-1 mice [1]; [7]): 0.14 ± 0.03 m/s
- T (act), activity time (CD-1 mice [1]; 0.1 mg/kg i.v. 30 min before testing, n = 7–8 (SD on next line: Hmg 1b-2 10.7, Hmg 1b-4 13.1)): 122.3 s
- time spent in the center of the arena (CD-1 mice [1]; 0.1 mg/kg i.v., vs control): increased the time the animals spent in the center of the arena
- N (c.z.), number of visits to central zone (CD-1 mice [1]; [8]): 16.8 ± 2.7
- N (def), number of bowel movements (CD-1 mice [1]; [8]): 0.5 ± 0.7
- N (peeps), number of peeps into minks (CD-1 mice [1]; [8]): 9.0 ± 1.5
- N (racks), vertical activity (CD-1 mice [1]; [8]): 37.4 ± 3.9
- N (s.p.), number of visits to side platform (CD-1 mice [1]; [8]): 16.9 ± 2.8
- S (act), distance traveled during activity (CD-1 mice [1]; [8]): 24.6 ± 7.5 m
- S, distance traveled (CD-1 mice [1]; [8]): 24.6 ± 2.3 m
- T (b.z.), staying on the border zone (CD-1 mice [1]; [8]): 143.8 ± 8.2 s
- T (c.z.), time spent on the central zone (CD-1 mice [1]; [8]): 34.9 ± 5.9 s
- T (e.c.z.), time of exit from the central zone (CD-1 mice [1]; [8]): 6.4 ± 2.4 s
- T (pass), passivity time (CD-1 mice [1]; [8]): 56.8 ± 9.1 s
- V(act), average movement speed during activity (CD-1 mice [1]; [8]): 0.21 ± 0.02 m/s
- V, average travel speed (CD-1 mice [1]; [8]): 0.14 ± 0.01 m/s
- T (act), activity time (CD-1 mice [1]; 1 mg/kg i.v. 30 min before testing, n = 7–8 (SD on next line: Hmg 1b-4 10.4)): 119.9 s
- number of vertical stances (CD-1 mice [1]; 0.1 and 1 mg/kg i.v., vs control): increased
- conclusion on CNS effect (CD-1 mice [1]; i.v.): anxiolytic effect
- effect on distance travelled and speed of movement (CD-1 mice [1]; i.v.): did not affect these options
- exploration activity (number of peeps into the holes) (CD-1 mice [1]; i.v.): significantly increased the exploration activity of mice
- most effective dose on peeps into the holes (CD-1 mice [1]; i.v.): 1 mg/kg
- percentage of the activity time (CD-1 mice [1]; i.v., control group 50%, significant increase): 70%
- nociceptive reaction (CD-1 mice [2]): did not induce a nociceptive reaction
- potentiation of rASIC3 currents (rat ASIC3 (rASIC3)): 29%
- maximal nontoxic dose [3]: 10 mg/kg
- reduction of volume of paw edema vs control (CD-1 mice [4]; 0.01 mg/kg i.v., only after 24 h): 1.5 times
- paw volume relative to original values (CD-1 mice [4]; 0.1 mg/kg i.v., 24 h): reduced the volume of the paw almost to the original values
- reduction of paw edema (CD-1 mice [4]; 0.1 mg/kg i.v., after 24 h): ~4 times
- reduction of paw edema (CD-1 mice [4]; 1 mg/kg i.v., after 24 h): approximately 2 times
- anti-inflammatory effect (CD-1 mice [4]; 0.1 and 1 mg/kg i.v., after 2, 4 and 24 h): statistically significant anti-inflammatory effect
- effect compared with diclofenac (CD-1 mice [4]; 1 and 0.1 mg/kg i.v. at 24 h): exceeded the effect of diclofenac
- reduction of paw edema (CD-1 mice [4]; 1 and 0.1 mg/kg i.v., after 4 h): 1.5 times
- paw volume and growth index of edema (CD-1 mice [4]; i.v., at 1 and 2 h): decreased slightly
- decrease in paw volume and growth index of edema (CD-1 mice [5]; 1 mg/kg i.v.): more than 1.5 times
- anti-inflammatory effect (CD-1 mice [5]; 0.01, 0.1 and 1 mg/kg i.v. 30 min before CFA): demonstrated an anti-inflammatory effect at all tested doses
- paw edema volume decrease compared with diclofenac (CD-1 mice [5]; 1 and 0.1 mg/kg i.v., diclofenac 1 mg/kg i.v.): greater than the decreases caused by diclofenac
- anti-inflammatory effectiveness vs other APETx-like / sea anemone peptides (CD-1 mice [5]; comparison with APETx2 and Ugr 9-1 data of ref [34]): significantly superior not only to Hmg 1b-2, but also to APETx2 and Ugr 9-1
